Source: ChEMBL document CHEMBL1137033, “Novel bisbenzamidines as potential drug candidates for the treatment of Pneumocystis carinii pneumonia” (Bioorg Med Chem Lett, 2004)

Experiments:
[1] = tested on: Pneumocystis carinii; assay: inhibitory concentration against Pneumocystis carinii; format: functional, organism-based
[2] = tested on: A549; assay: Cytotoxicity against A549 cell line; format: functional, cell-based; conditions: Homo sapiens

| IC50 [1] [nM] | SMILES | IC50 [2] [nM] |
| --- | --- | --- |
| 1400 | N=C(N)c1ccc(OCc2ccccc2COc2ccc(C(=N)N)cc2)cc1 | 33100 |
| 3 | N=C(N)c1ccc(NC(=O)CCCC(=O)Nc2ccc(C(=N)N)cc2)cc1 | > 300 |
| 1300 | N=C(N)c1ccc(COc2ccccc2OCc2ccc(C(=N)N)cc2)cc1 | 44100 |
| 2 | N=C(N)c1ccc(NC(=O)CCCCC(=O)Nc2ccc(C(=N)N)cc2)cc1 | > 200 |
| 1300 | N=C(N)c1ccc(OCc2ccc(COc3ccc(C(=N)N)cc3)cc2)cc1 | 30200 |
| 500 | N=C(N)c1ccc(OCCCCCOc2ccc(C(=N)N)cc2)cc1 [PENTAMIDINE] | 24000 |

| SMILES | IC50 [1] [nM] | IC50 [2] [nM] |
| --- | --- | --- |
| N=C(N)c1ccc(OC(=O)c2ccc(C(=O)Oc3ccc(C(=N)N)cc3)cc2)cc1 [BIS(4-CARBAMIMIDOYLPHENYL)TEREPHTHALATE] | 13400 | 121000 |
